Among the data in US20040192617A1, “Process for preparing phenolic acid salts of gabapentin” (priority 2003, published 2004) are solubility values, retold here.

The conditions of data set [1]: in water and across a wide range of pH; cited from earlier work.
The nature of data set [2]: Solubility of the tannate salt, seen as precipitation from the reaction solution. The class given is physicochemical. As to conditions: water/ethanol mixture, room temperature; salt precipitates from solution. The method, then: The completeness of the reaction and the formation of the tannate salt were followed by taking samples at different stages of the conversion process. Due to the large size of the tannate salt, it usually precipitates from solution upon formation. The absence or loss of gabapentin from solution is correlated with the formation of the tannate salt.
The conversion process used in this example to synthesize the tannate salt of gabapentin is done at room temperature as follows: 250 ml of purified water and 50 ml of ethanol are placed in a beaker. While mixing the water/ethanol mixture, tannic acid is added and mixing is continued to form a solution. While mixing the tannic acid solution, gabapentin powder is added slowly. The gabapentin reacts with the tannic acid to form the tannate salt. […] The ratio of tannic acid to gabapentin used is 0.8:1.

Read-outs that look alike come from different tables or passages of the source.

Turning to `NCC1(CC(=O)O)CCCCC1` [Gabapentin, 1-(aminomethyl) cyclohexaneacetic acid], the solubility result in data set [1] is listed as “freely soluble”. As for gabapentin tannate, the solubility entry in data set [2] is given as “low solubility”.
